Measurements published in PubChem BioAssay (NCI).
Where “and” joins values, the source holds several entries; their conditions need not be identical. Identical values can stand only once.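 Five concentrations, 48 hours, 96-well plates. GI50 marks 50% less growth. Definition used: TGI = concentration required for complete inhibition of growth.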

Experiments:
Assay in all cases: NCI anticancer screen, dose series, 48 h
CCRF-CEM leukemia = system: CCRF-CEM leukemia
HT29 colon = system: HT29 colon
KM12 colon = system: KM12 colon
SR leukemia = system: SR leukemia
ACHN renal = system: ACHN renal
SK-MEL-28 melanoma = system: SK-MEL-28 melanoma
NCI-H522 lung = system: NCI-H522 lung
HOP-62 NSCLC = system: HOP-62 NSCLC
OVCAR-8 ovarian = system: OVCAR-8 ovarian
NCI/ADR-RES ovarian = system: NCI/ADR-RES ovarian

SMILES | GI50 (CCRF-CEM leukemia) | TGI (CCRF-CEM leukemia) | GI50 (HT29 colon) | TGI (HT29 colon) | GI50 (KM12 colon) [µM] | TGI (KM12 colon) | GI50 (SR leukemia) [µM] | GI50 (ACHN renal) | TGI (ACHN renal) | GI50 (SK-MEL-28 melanoma) | TGI (SK-MEL-28 melanoma) | GI50 (NCI-H522 lung) | TGI (NCI-H522 lung) | GI50 (HOP-62 NSCLC) | TGI (HOP-62 NSCLC) | GI50 (OVCAR-8 ovarian) [µM] | TGI (OVCAR-8 ovarian) | GI50 (NCI/ADR-RES ovarian) [µM] | TGI (NCI/ADR-RES ovarian) | TGI (SR leukemia)
Nc1nc2ccc3[nH]ncc3c2c2c1CCCC2 | 2.7 µM | 12.5 µM | 1.88 µM | 11.8 µM | 2.82 | 11.6 µM | 0.467 | 1.56 µM | 10.5 µM | 1.62 µM | 4.33 µM | 2.17 µM | 5.88 µM | 1.99 µM | 6.77 µM | 2.14 | 18.8 µM | 1.75 | 5.57 µM | –
CC(=O)OCc1ccc(O)c(C=O)c1 | – | > 100 µM | – | > 100 µM | – | > 100 µM | – | – | > 100 µM | – | > 100 µM | – | > 100 µM | – | > 100 µM | – | > 100 µM | – | > 100 µM | > 100 µM
COc1c2c(c(CC=C(C)C)c3oc(=O)c(-c4ccc(O)cc4)c(O)c13)OC(C)(C)C=C2 | – | 76.8 µM | – | > 100 µM | – | 35 µM | – | – | 92.7 µM | – | 73 µM | – | 62.9 µM | – | 86.2 µM | – | > 100 µM | – | 93.7 µM | 79.9 µM
NC(=S)N/N=C/c1ccc(O)cn1 | 4.59 µM and 2.42 µM | 37.4 µM and 12 µM and 60.8 µM | 37.9 µM | > 929 µM | 35 | > 1500 µM | – | 4.14 µM | 40.8 µM and 16.1 µM | 49.9 µM and 41.6 µM | > 1500 µM and 1050 µM | 10.2 µM and 1.41 µM and 7 µM | – | 10.6 µM and 5.65 µM | 35.7 µM and 16.9 µM and 74.6 µM | 4.71 | 72.3 µM and 161 µM and 393 µM | 3.09 | – | > 323 µM
CC1(C)CCC[C@]2(C)c3cc(O)ccc3CC[C@@H]12 | – | – | 23.2 µM | 43.7 µM | 14.1 | 31.2 µM | 8.72 | 18.1 µM | 33.5 µM | 19.6 µM | 37 µM | 21.5 µM | 47.4 µM | – | – | 21.7 | 41.1 µM | 16.5 | 32.5 µM | > 100 µM
Clc1cccc(N2CCN(CCN3CCc4c([nH]c5ccccc45)C3c3cccnc3)CC2)c1 (stereo unspecified) | – | > 100 µM | – | > 80.4 µM | – | > 100 µM | – | – | > 100 µM | – | > 100 µM | – | > 100 µM | – | > 86.8 µM | – | > 100 µM | – | > 100 µM | > 100 µM
N#C/C(=C\Nc1ccccn1)C(=O)c1ccco1 | – | – | – | > 100 µM | – | > 100 µM | – | – | > 100 µM | – | > 100 µM | – | > 100 µM | – | > 100 µM | – | > 100 µM | – | > 100 µM | > 100 µM
Clc1ccc(C(c2ccc(Cl)cc2)N2CCNCC2)cc1 | – | 15.3 µM | – | 4.51 µM | – | 3.63 µM | – | – | 5.74 µM | – | 3.45 µM | – | 3.46 µM | – | 3.71 µM | – | 3.28 µM | – | 13.6 µM | 4.41 µM
CCOC(=O)NC1=C(N2CC2)C(=O)C(NC(=O)OCC)=C(N2CC2)C1=O | 3.47 µM and 1.88 µM | 9.8 µM and 16.1 µM and 12.1 µM | 14.5 µM and 9.07 µM | 25 µM and 47.3 µM and 70.2 µM | 16.7 | 25 µM and 35.3 µM | 0.389 | 1.32 µM and 1.06 µM | 20.3 µM and 12.7 µM and 23.6 µM | 22.3 µM and 16.6 µM | 25 µM and 42.4 µM and 54.4 µM | 5.95 µM and 4.17 µM | 17.5 µM and 9.09 µM and 9.12 µM | 1.56 µM and 1.75 µM | 15.1 µM and 7.44 µM and 2.9 µM | 4.71 | 14.3 µM and 14.5 µM | 8.44 | 25 µM and 16.8 µM | 7.9 µM and 60.6 µM
O=c1oc(-c2ccccc2)cc2cccc(O)c12 | > 100 µM | > 100 µM | > 56.9 µM | > 100 µM | 20.8 | > 69.3 µM | 43.5 | 25.9 µM | > 73.1 µM | > 100 µM | > 100 µM | 49.9 µM | > 100 µM | 19.5 µM | 40.9 µM | 23.9 | 52.4 µM | 33.3 | > 74.3 µM | > 100 µM
CN1C(=O)C(=Cc2cn(Cc3ccccc3)c3ccccc23)C(=O)N(C)C1=O | > 77.6 µM | > 100 µM | > 78.8 µM | > 100 µM | 52.4 | > 100 µM | 43.1 | 51.8 µM | > 100 µM | > 70.2 µM | > 100 µM | > 100 µM | > 100 µM | 43 µM | > 100 µM | 35.8 | > 82.6 µM | > 70 | > 100 µM | > 100 µM
Oc1ccc2ccccc2c1C1NN=C(c2ccccc2)S1 (stereo unspecified) | 0.359 µM | > 100 µM | 0.724 µM | 40 µM | 0.409 | 32.9 µM | 0.473 | 0.343 µM | > 40 µM | 0.799 µM | 97.8 µM | 0.307 µM | 13.5 µM | 0.454 µM | 31.7 µM | 0.439 | > 100 µM | 0.383 | 62.8 µM | > 100 µM
COc1ccc([I+]c2ccccc2)cc1 | 2.86 µM | > 100 µM | 4.22 µM | > 100 µM | 4.27 | > 100 µM | 1.78 | 42.7 µM | > 100 µM | 25.9 µM | > 100 µM | 24.5 µM | > 100 µM | 2.91 µM | 79.2 µM | 1.37 | > 100 µM | > 100 | > 100 µM | > 100 µM
OC(C1CO1)C(O)C1CO1 (stereo unspecified) | 1.53 µM | 120 µM and 392 µM | 97.7 µM | 150 µM and 345 µM | – | 112 µM and 254 µM | – | – | 52.2 µM and 156 µM | – | 144 µM and 239 µM | 11.3 µM | 94.8 µM and 175 µM | 8.57 µM | 36.5 µM and 99.7 µM | – | 115 µM and 453 µM | 81 | 123 µM and 320 µM | 72.2 µM and 528 µM
O=C1NC(=O)C(c2ccc(Cl)cc2)=C1Nc1ccc(Cl)c(C(=O)O)c1 | > 25 µM | > 25 µM | > 25 µM | > 25 µM | > 25 | > 25 µM | > 25 | > 25 µM | > 25 µM | > 25 µM | > 25 µM | > 25 µM | > 25 µM | > 25 µM | > 25 µM | > 25 | > 25 µM | > 25 | > 25 µM | > 25 µM
